# In patent publication US20250188044A1 (HARBIN MEDISAN PHARMACEUTICAL CO., LTD., priority 2021, published 2025):
# Like-named read-outs stand apart in the source and are kept apart here.
# Key:
# PPARα = target: T1, PPARα (Homo sapiens, UniProt Q07869); assay: Gal4-PPARα(LBD) reporter gene agonistic activity assay in Cos-7 cells; format: cell-based; conditions: for EC50: Cos-7 cells, Gal4-PPARα(LBD) reporter, 16 h, 100% = GW7647 10 nM; for agonistic activity for PPARα (EC50 level, in words): Cos-7 reporter assay
# T1 construct: hPPARα (279aa-580aa); expressed in transfected cells; host or cells: Cos-7
# T1 sequence (Q07869 167-468 limits assumed): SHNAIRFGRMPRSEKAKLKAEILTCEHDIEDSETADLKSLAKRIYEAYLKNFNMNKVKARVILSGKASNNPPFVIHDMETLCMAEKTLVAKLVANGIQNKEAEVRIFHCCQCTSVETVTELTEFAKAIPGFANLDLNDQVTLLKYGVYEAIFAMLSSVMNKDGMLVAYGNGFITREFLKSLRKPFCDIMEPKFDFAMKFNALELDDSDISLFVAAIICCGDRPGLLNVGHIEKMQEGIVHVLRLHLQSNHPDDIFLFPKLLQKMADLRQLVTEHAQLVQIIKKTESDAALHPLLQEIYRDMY
# [1] = Pharmacokinetic evaluation in rats; format: in vivo, SD rats
# Method: Animals: 6 male SD rats, SPF grade, sourced from the animal repository of Shanghai Medicilon research institution.
# The dose in the oral administration group was 10 mpk, and the dose in the intravenous injection group was 2 mpk.
# All samples were centrifuged at 18,000 g for 7 min in a low-temperature centrifuge, and plasma was isolated. The content of the compound in the plasma was determined by LC-MS/MS-18, and relevant pharmacokinetic parameters were calculated from the plasma concentration data at different time points.
# [2] = Metabolic stability in human liver microsomes; format: in vitro ADME; conditions: for half-life: human liver microsomes 0.75 mg/mL, NADPH, 0-60 min
# Method: A 500 μM solution of the compound in acetonitrile was prepared and diluted to obtain a 1.5 μM drug working solution with a 0.1 M potassium phosphate solution. The drug working solution was co-incubated with a human liver microsome working solution at a final concentration of 0.75 mg/mL and an NADPH solution (final concentration: 550 μM), and the incubation was terminated by adding an acetonitrile solution at 0 min, 15 min, 30 min, 45 min, and 60 min. The residual amount of the compound that remained in the system at each time point was detected by using LC/MS. The absolute value k of the slope was determined by plotting the natural logarithm of the percentage of the residual amount of the compound with the time, and the calculation was performed according to the formula: T1/2 (half-life)=ln2/k=0.693/k.
# PPARδ = target: T2, PPARδ (Homo sapiens, UniProt Q03181); assay: Gal4-PPARδ(LBD) reporter gene agonistic activity assay in Cos-7 cells; format: cell-based; conditions: for agonistic activity for PPARδ (EC50 level, in words): Cos-7 reporter assay
# T2 construct: expressed in transfected cells; host or cells: Cos-7
# T2 sequence (Q03181 139-441 limits assumed): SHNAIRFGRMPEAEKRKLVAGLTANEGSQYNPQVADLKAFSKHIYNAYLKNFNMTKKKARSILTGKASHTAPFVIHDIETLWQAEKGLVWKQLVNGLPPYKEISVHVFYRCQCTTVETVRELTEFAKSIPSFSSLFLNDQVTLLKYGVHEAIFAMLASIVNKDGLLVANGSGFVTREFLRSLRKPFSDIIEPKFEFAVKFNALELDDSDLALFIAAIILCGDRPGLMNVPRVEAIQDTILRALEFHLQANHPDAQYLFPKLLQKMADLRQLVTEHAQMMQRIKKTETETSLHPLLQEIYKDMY
# THP1 cells = assay: LPS-induced inflammation-associated gene expression of THP1 cells (qPCR); format: cell-based, human; conditions: THP1 monocyte-derived macrophages, 8, 40, and 200 nM, 6 h, qPCR (FIG. 3)
# Method: THP1 cells (human monocytes) were cultured in a 6-well cell culture plate in a medium containing 100 ng/mL phorbol ester (purchased from MCE) and stimulated for differentiation for 48 h.
# The medium was replaced with a fresh complete medium for the blank control group, the medium was replaced with a complete medium containing […] LPS for the LPS group, and the medium was replaced with 8, 40, and 200 nM drug-containing media prepared with a complete medium containing […] LPS for the administration group. After 6 h of treatment, the medium was discarded. Quantitative PCR was performed according to the procedures in Example 207 to detect the expression of IL6 and IL12B, which are inflammatory factors playing an important role in inflammatory response (the primer sequences are shown in Table 8). […] Some other compounds of the present invention also have similar anti-inflammatory activity.
# [3] = Pharmacokinetic evaluation in mice; format: in vivo, C57BL/6J mice; conditions: for AUC(0-inf): read-out: Area under the curve AUC(0-∞); for half-life: read-out: Half-life T1/2 (converted); for Cmax: read-out: Peak concentration Cmax; for Tmax: read-out: Time-to-peak Tmax
# From the text: Animals: 6 male C57BL/6J mice, SPF grade, sourced from the animal repository of Shanghai Medicilon research institution.
# Grouping: Mice were divided into 2 groups of 3 mice each, one group was an oral administration group and the other group was an intravenous injection administration group. The dose in the oral administration group was 10 mpk, and the dose in the intravenous injection group was 2 mpk.
# Experimental method: After the intravenous injection administration group was subjected to administration by injection via the tail vein, approximately 0.03 mL of blood was collected via the orbit at 0.083 h, 0.25 h, 0.5 h, 1 h, 2 h, 4 h, 8 h, and 24 h, and an ethylenediaminetetraacetic acid dipotassium salt was quickly added for anticoagulation and the blood was placed on ice after the blood collection. The mice in the oral administration group were fasted for 12 h before administration and fed 4 h after administration; after oral administration, approximately 0.03 mL of blood was collected via the orbit at 0.25 h, 0.5 h, 1 h, 2 h, 4 h, 6 h, 8 h, and 24 h, and an ethylenediaminetetraacetic acid dipotassium salt was quickly added for anticoagulation and the blood was placed on ice after the blood collection. All samples were centrifuged at 18,000 g for 7 min in a low-temperature centrifuge, and plasma was isolated. The content of the compound in the plasma was determined by LC-MS/MS-18, and relevant pharmacokinetic parameters were calculated from the plasma concentration data at different time points.
# HepG2 cells = assay: Lipid metabolism-associated gene expression of HepG2 cells (qPCR); format: cell-based, human; conditions: 8 nM, nM, and 200 nM, 12 h, vs. blank control (FIGS. 1 and 2)
# Method: HepG2 cells (human hepatoma cells) were cultured in a 6-well cell culture plate and subjected to adherent culture overnight. […] The old medium was discarded and replaced with drug-containing medium of different concentrations (complete medium without the compound for the blank control group). After dosing, the cells were incubated for 12 h. The medium was discarded and total RNA was extracted by the phenol-chloroform method. After reverse transcription, the real-time quantitative fluorescent PCR experiment (RNA extraction, reverse transcription, quantitative PCR reagents were all purchased from Nanjing Vazyme Biotech Co., Ltd.) was performed using ACTB as an internal reference, and the expression of PDK4, ACADVL, and CPT1A, which are important genes in oxidative metabolism of lipids, was detected according to the steps in the product instructions (the primer sequences are shown in Table 7). […] Some other compounds of the present invention also have similar activity.
# [4] = male, C57BL/6J, mouse, plasma, 2 mg/kg, intravenous injection, 2 mpk
# [5] = male, C57BL/6J, mouse, plasma, 10 mg/kg, oral administration, 10 mpk
smiles,measurement,setting,value
"Cc1cc(Cn2ncn(-c3ccc(OC(F)(F)F)cc3)c2=O)cc(C(F)(F)F)c1OC(C)(C)C(=O)O [Compound 163, 2-Methyl-2-(2-methyl-4-((5-oxo-4-(4-(trifluoromethoxy)phenyl)-4,5-dihydro-1H-1,2,4-triazol-1-yl)methyl)-6-(trifluoromethyl)phenoxy)propionic acid]",EC50,PPARα,35 nM
same,"agonistic activity for PPARα (EC50 level, in words)",PPARα,at nanomolar levels
same,pharmacokinetic properties (in words),[1],relatively good pharmacokinetic properties
same,Area under the curve AUC(0-∞),"[1]; intravenous injection, 2 mpk",15851.97 ± 3557.93 ng·h/mL
same,Half-life T1/2,"[1]; intravenous injection, 2 mpk",12.71 ± 8.67 h
same,Peak concentration Cmax,"[1]; intravenous injection, 2 mpk",10864.30 ± 719.85 ng/mL
same,Time-to-peak Tmax,"[1]; intravenous injection, 2 mpk",0.08 ± 0.00 h
same,Area under the curve AUC(0-∞),"[1]; oral administration, 10 mpk",39483.83 ± 5363.60 ng·h/mL
same,Bioavailability F,"[1]; oral administration, 10 mpk",53.24%
same,Half-life T1/2,"[1]; oral administration, 10 mpk",6.86 ± 0.34 h
same,Peak concentration Cmax,"[1]; oral administration, 10 mpk",5474.28 ± 1232.94 ng/mL
same,Time-to-peak Tmax,"[1]; oral administration, 10 mpk",0.25 ± 0.00 h
same,half-life,[2],> 2 h
same,EC50,PPARδ,6 nM
same,"agonistic activity for PPARδ (EC50 level, in words)",PPARδ,at nanomolar levels
"Cc1cc(Cn2ncn(-c3ccc(C(F)(F)F)cc3)c2=O)cc(C)c1OC(C)(C)C(=O)O [Compound 57, 2-(2,6-Dimethyl-4-((5-oxo-4-(4-(trifluoromethyl)phenyl)-4,5-dihydro-1H-1,2,4-triazol-1-yl)methyl)phenoxy)-2-methylpropionic acid]",EC50,PPARα,26 nM
same,"agonistic activity for PPARα (EC50 level, in words)",PPARα,at nanomolar levels
same,LPS-induced expression of IL6 and IL12B,THP1 cells,resist LPS-induced up-regulation of IL6 and IL12B of macrophages
same,metabolic stability in human liver microsomes (in words),[2]; human liver microsomes,very good metabolic stability in human liver microsomes
same,half-life,[2],> 2 h
same,pharmacokinetic properties (in words),[3],good pharmacokinetic properties
same,AUC(0-inf),[3]; [4],4360 ± 522 ng·h/mL
same,half-life,[3]; [4],9.53 ± 3.29 h
same,Cmax,[3]; [4],7240 ± 269 ng/mL
same,Tmax,[3]; [4],0.08 h
same,AUC(0-inf),[3]; [5],18600 ± 2760 ng·h/mL
same,bioavailability,"[3]; male, C57BL/6J, mouse, plasma, 10 mg/kg, oral administration, 10 mpk, read-out: Bioavailability F",87.3%
same,half-life,[3]; [5],7.41 ± 2.05 h
same,Cmax,[3]; [5],14000 ± 2050 ng/mL
same,Tmax,[3]; [5],0.25 h
same,EC50,PPARδ,2 nM
same,"agonistic activity for PPARδ (EC50 level, in words)",PPARδ,at nanomolar levels
same,"expression of PDK4, ACADVL, and CPT1A",HepG2 cells,"improve the expression of PDK4, ACADVL, and CPT1A in a dose-dependent manner with significance"
